{"source": "paper PMC9862588", "about": "“The Bi-Functional Paxilline Enriched in Skin Secretion of Tree Frogs (Hyla japonica) Targets the KCNK18 and BKCa Channels” (Toxins, 2023)", "biological_target": "T1, KCNK18 (Rattus norvegicus, UniProt Q6Q1P3)", "T1 sequence (Q6Q1P3 1-405)": "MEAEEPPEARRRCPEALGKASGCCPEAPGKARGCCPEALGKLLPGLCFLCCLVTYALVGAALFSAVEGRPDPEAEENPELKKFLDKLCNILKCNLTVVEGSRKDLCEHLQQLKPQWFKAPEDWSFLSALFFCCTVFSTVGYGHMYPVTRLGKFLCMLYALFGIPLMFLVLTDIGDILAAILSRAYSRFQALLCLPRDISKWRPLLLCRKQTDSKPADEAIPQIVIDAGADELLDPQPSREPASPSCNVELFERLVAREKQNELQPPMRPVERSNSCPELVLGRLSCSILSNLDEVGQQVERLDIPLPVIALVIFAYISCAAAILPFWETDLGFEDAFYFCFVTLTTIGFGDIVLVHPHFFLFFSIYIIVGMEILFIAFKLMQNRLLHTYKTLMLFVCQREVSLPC", "test": "whole-cell patch clamp of transfected HEK293 cells, dose-response; loss of effect on F375 swap and F167A", "type": "cell-based", "data": [{"smiles": "CC(C)(O)[C@H]1O[C@H]2CC[C@@]3(C)[C@@](O)(CC[C@H]4Cc5c([nH]c6ccccc56)[C@@]43C)C2=CC1=O", "note": "[PAX, Paxilline]", "values": [{"measurement": "IC50", "value": "4.13 ± 0.04", "unit": "µM"}]}]}
